In patent publication US7772228B2, “Method for treatment of bacterial infections with once or twice-weekly administered rifalazil” (priority 1998, dated 2010):
Converted amounts (≈) assume the structure as drawn. Where two headings read alike, the source gives them in different places.

Columns and labels:
M. tuberculosis [1] = assay type: cell-based, Mycobacterium tuberculosis; conditions: comparison of MIC50 and MIC90, clinical isolates
[2] = tested on: extracellular M. tuberculosis; assay: MIC and MBC against extracellular bacteria; assay type: cell-based, Mycobacterium tuberculosis
M. intracellulare = assay: Mice infected with M. intracellulare, CFUs in organs; assay type: in vivo; conditions: after four and eight weeks of treatment
M. avium [3] = assay: Rabbit model of M. avium infection; assay type: in vivo; conditions: compared to controls
[4] = tested on: Chlamydia pneumoniae strain AR-39; assay: Mouse model infected with Chlamydia pneumoniae; assay type: in vivo; conditions: intraperitoneal 1 mg/kg QID for three days; five days after cessation
Experimental: Sensitivity testing was conducted in cell cultures against Chlamydia pneumoniae strain TW-l 83 using rifalazil, clanthromycin, or azithromycin. […] The in vivo testing of rifalazil used a mouse model infected with Chlamydia pneumoniae strain AR-39. […] All control animals remained infected.

[5] = Multiple-dose oral toxicology studies in rats; assay type: in vivo
Experimental: In chronic studies with dogs and rats, the no-observed-adverse-effect-level was 1000 mg/kg. […] Significant partitioning of drug-related radioactivity to the formed elements of the blood was observed. […] The urine contained a small amount (5.5%) of radioactivity.
Single-dose and multiple-dose oral toxicology studies were conducted in mice, rats, and dogs. In addition, to maximize systemic exposure, single-dose intravenous (IV) and intraperitoneal (IP) studies were conducted in rats and mice. Four-week and 13-week oral studies in dogs and rats and 26-week oral studies in rats included standard clinical measurements and physical and pathological evaluations.

[6] = human, in vivo
Experimental: The third trial (003) was a randomized, rising, double-blind, multiple-dose, placebo-controlled study where subjects were observed during the 14-consecutive days of drug administration in dosages 0, 5 and 25 mg/day and for an additional 14 days without medication. All subjects received the dose within 30 minutes after eating a standardized breakfast. Subjects were divided into two groups. In Group 1, eight subjects were randomized to a daily 25 mg dose of rifalazil and four subjects were randomized to placebo. Numerous adverse reactions began to appear with the 25 mg dose several days after dosing and it became apparent that 25 mg daily dose was not safe. Consequently, after review of the safety data, the study protocol was amended to proceed with a lower dose of 5 mg in group 2. Group 2 consisted of eight subjects randomized to a daily 5 mg dose of rifalazil and four subjects randomized to placebo.
In the clinical trials 001 and 002 all patients were submitted to laboratory testing where the hematology, serum chemistry and urinanalysis were examined prior to dosing, during dosing and at least 14 days following the cessation of drug administration.
Laboratory testing regimen for 003 and 004 trials was the same as for 001 and 002 trials.
The onset and magnitude of decrease in hematologic parameters appeared to be related to this dose. In order to better visualize the drop and subsequent recovery in these parameters, the data were graphed to synchronize subjects to their last dose.

clinical = conditions: human, in vivo
Excerpt: Pharmacokinetic analyses associated with clinical trials involved measurement of concentrations of rifalazil in plasma and/or whole blood of subjects participating in the four Phase 1 studies using high performance liquid chromatography.
Attempts were made to analyze the multiple-dose pharmacokinetics using a linear 3-compartment model, and a 3-compartment model incorporating enzyme induction. However, neither multi-compartmental model accurately characterized the pharmacokinetic parameters in all subjects. Daily dosing and related early terminations due to adverse reactions, differences in bioavailability from a food effect, and nonconnective dose administration further complicated these analyses. Therefore, only noncompartmental pharmacokinetic parameters were derived for clinical trials 003 and 004.

M. avium [7] = conditions: 18 strains, agar dilution; cited from earlier work
M. tuberculosis [8] = conditions: cited from earlier work
[9] = tested on: extracellular M. tuberculosis; conditions: cited from earlier work
M. tuberculosis [10] = conditions: eight weeks treatment; cited from earlier work
[11] = Ref. 7, 7H11 agar, 22 strains (rif^r and rif^s)

SMILES: CO[C@H]1/C=C/O[C@@]2(C)Oc3c(C)c(O)c4c(=O)c(c5oc6cc(N7CCN(CC(C)C)CC7)cc(O)c6nc-5c4c3C2=O)NC(=O)/C(C)=C\C=C\[C@H](C)[C@H](O)[C@@H](C)[C@@H](O)[C@@H](C)[C@H](OC(C)=O)[C@@H]1C [Rifalazil, 3′-hydroxy-5′-(4-isobutyl-1-piperazinyl)benzoxasinorifamycin]
- fold greater activity than rifabutin (M. tuberculosis [1]): 4 fold
- fold greater activity than rifampin (M. tuberculosis [1]): > 64 fold
- MIC and MBC fold lower than rifampin ([2]; extracellular bacteria): at least 10 fold
- MBCs relative to the MICs ([2]; typical): 2-4 fold
- number of CFUs in organs (M. intracellulare): significantly reduced the number of colony forming units (CFUs) in organs
- bacterial load on organs (M. avium [3]): reduced the bacterial load on organs compared to controls
- Chlamydia pneumoniae in the lungs [4]: not detectable
- doses with dose-related lymphocytic depletion in the spleens ([5]; 26-week study): > 30 mg/kg/day
- no-observed-adverse-effect-level ([5]; chronic studies, rats): 1000 mg/kg
- doses at which hematological changes were noted ([5]; multiple-dose oral, rats): > 30 mg/kg
- WBC counts, level of continuous drop [6]: around 2.0 K/CU MM
- nadir of mean WBC after the last dose [6]: 1 to 2 days
- time for hematologic parameters to return to normal after the last dose [6]: ≤ 14 days
- Half-life distribution t½ (mean) (clinical): 17.26 h
- half-life (clinical; Half-life distribution t½ (mean)): 10.1 h
- Tmax (clinical; Tmax (mean)): 5.25 h
- MIC90 (M. avium [7]): 1560 ng/mL (≈ 1660 nM)
- MIC90 (M. tuberculosis [8]; 22 strains, agar dilution): 12500 ng/mL (≈ 13300 nM)
- MIC90 (M. tuberculosis [8]; [11]): 12500 ng/mL (≈ 13300 nM)
- MIC Range (M. tuberculosis [8]; [11]): ≦0.0125 to 12.5^ μg/mL
- MIC90 (M. tuberculosis [8]; Ref. 8, 7H11 agar, 16 strains (rif^s)): ≦0.0125 μg/mL
- MBC ([9]; strain Atencio): 8 ng/mL (≈ 8.5 nM)
- MIC ([9]; strain Atencio): 1 ng/mL (≈ 1.06 nM)
- MBC ([9]; strain Erdman): 4 ng/mL (≈ 4.25 nM)
- MIC ([9]; strain Erdman): 2 ng/mL (≈ 2.13 nM)
- MBC ([9]; strain H37Rv): 31 ng/mL (≈ 32.9 nM)
- MIC ([9]; strain H37Rv): 8 ng/mL (≈ 8.5 nM)
- gross lung lesions, bacterial loads, survival time versus rifampin (M. tuberculosis [10]): outperformed rifampin in treating the disease
